From US20110237677A1, “Inhibitors” (The University of Nottingham, priority 2008, published 2011)

How the values were obtained:
myometrial strips [1] = assay: Isometric tension recording, bradykinin-induced contractions of myometrial strips; type: cell-based, human; settings: bradykinin 10^−8M; compared to control strips
Excerpt: (§1) Longitudinal myometrial strips were mounted in an organ bath and contractile activity recorded as a measure of tensile force as previously described (Chanrachakul, Broughton-Pipkin et al., Am J Obstet Gynecol 192(2): 458-63, 2005). Myometrial contractions were initially stimulated by addition of oxytocin, bradykinin or phenylephrine (Sigma-Aldrich; 10^−10 mol/L, 10^−8 mol/L, 10^−8 mol/L respectively). Once rhythmic contractions had been achieved cumulative additions of cystamine (Sigma-Aldrich; 10^−8 to 10^−2 mol/L), mono-dansylcadaverine (MDC) (Sigma-Aldrich; 10^−8 to 10^−4 mol/L), cysteamine (Sigma-Aldrich; 10^−9 to 10^−2 mol/L), putrescine (Sigma-Aldrich; 10^−8 to 10^−4 mol/L) were added at 25 minute intervals. Contractile activity was determine by activity integral measured from 20 minutes time periods for each drug addition and analysed along with time-matched control myometrial strips under the same conditions but with vehicle additions (physiological salt solution).

myometrial strips [2] = assay: Isometric tension recording, spontaneous contractions of myometrial strips; type: cell-based, human; settings: 2 g tension, organ bath; dose-dependent
Description: FIG. 9 Diagrammatic representations showing that spontaneous contractions in myometrial strips are inhibited by cystamine (n=4), cysteamine (n=3) and MDC (n=2) in a dose-dependent manner. Control strips are shown with unbroken line (n=2). Tissue is used 24 hours following elective caesarean section and contractions are allowed to spontaneously initiate under 2 g tension and in a temperature controlled and oxygenated organ bath.
as §1

human myometrial tissue = assay: Isometric tension recording, oxytocin-induced contractions of myometrial strips; type: cell-based; settings: for EC50: Homo sapiens, inhibition of contractions stimulated with 10^−10M oxytocin, pooled experiments, cumulative additions, tissue 24 hours after elective caesarean; for effect on oxytocin-induced contractions: dose-dependent, 10^−10M oxytocin; for oxytocin-induced contractions after removal of the inhibitor by washing: washing with physiological salt solution, re-stimulation with oxytocin
Excerpt: as §1

[3] = system: Myometrial smooth muscle cells; assay: Calcium mobilisation assay, oxytocin stimulated; type: cell-based, human; settings: for effect on maximal calcium mobilisation: incubation with 10^−6M inhibitor, oxytocin stimulated; for Emax, maximal calcium mobilisation on oxytocin stimulation: pre-incubation for 10 minutes with 10^−6M inhibitor, FlexStation fluorescence
Description: Myometrial smooth muscle cells were grown in DMEM (Dulbecco's Modified Eagle Medium; Sigma-Aldrich) supplemented with 10% fetal calf serum, L-glutamine and 0.2% pen/strep at 37° C. 5% CO2, following dissociation in 2 mg/ml collagenase (Sigma-Aldrich). Once confluent cells were plated on black-walled flat-bottomed sterile 96-well plates (Costar) at a concentration of 10^5 cells/ml and in the same media makeup and again grown to confluence. Once confluent, cells were incubated in 100 μl media/well containing 2.5 mM probenecid (Sigma-Aldrich), 2.3 μM Fluo-4 (invitrogen) and 0.023% pluronic acid (Invitrogen) for one hour in the dark at 37° C. 5% CO2. Cells were then washed twice with phosphate buffered saline and finally incubated in 100 μl/well PSS (Chanrachakul, Broughton-Pipkin et al., Am J Obstet Gynecol 192(2): 458-63, 2005) containing 2.5 mM probenecid with or without 10^−6 mol/L cystamine, MDC or cysteamine for 10 minutes. Fluorescent readout was then recorded on FlexStation ([…]) over a 200 second period with oxytocin addition at 15 seconds (10^−11 to 10^−5 mol/L) and ionomycin, to measure maximal potential response, at 150 seconds (10^−6 mol/L; Sigma-Aldrich).

myometrial strips [4] = assay: Isometric tension recording, phenylephrine-induced contractions of myometrial strips; type: cell-based, human; settings: phenylephrine 10^−8M; compared to control strips
Excerpt: as §1

Row | SMILES | effect on bradykinin induced contractions (myometrial strips [1]) | effect on spontaneous contractions (myometrial strips [2]) | EC50 (human myometrial tissue) [µM] | effect on oxytocin-induced contractions (human myometrial tissue) | oxytocin-induced contractions after removal of the inhibitor by washing (human myometrial tissue) | effect on maximal calcium mobilisation [3] | Emax, maximal calcium mobilisation on oxytocin stimulation [3] | effect on phenylephrine induced contractions (myometrial strips [4]) | contractility, % of untreated control myometrium (human myometrial tissue; MDC 10^−4M, contractions stimulated with 10^−10M oxytocin)
1 | NCCSSCCN [cystamine] | inhibited in a dose dependent manner | inhibited | 1310 | inhibited | return to control levels | significantly reduced | 87.67 | inhibited in a dose dependent manner | –
2 | NCCCCN [putrescine] | – | – | 56.6 | inhibited | – | – | – | – | –
3 | CN(C)c1cccc2c(S(=O)(=O)NCCCCCN)cccc12 [MDC, Monodansylcadaverine] | inhibited in a dose dependent manner | inhibited | 22 | inhibited | return to control levels | significantly reduced | 81.45 | inhibited in a dose dependent manner | 17.8%±6.2
4 | NCCS [cysteamine] | – | inhibited | 1.63 | inhibited | began to return to control levels | significantly reduced | 98.95 | – | –
